Assay results as given in paper PMC6409085, “Three odorant-binding proteins are involved in the behavioral response of Sogatella furcifera to rice plant volatiles” (PeerJ, 2019).
Several values for one entry are separate records, joined by “and”; a condition that tells them apart may be missing. Equal values may be shown once.

Tests used:
S. furcifera adults = assay: Y-tube olfactometer behavioral trials; format: in vivo, Sogatella furcifera; settings: odorant 50 µL/L vs hexane
How it was run: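 Single S. furcifera adults (2 days post-emergence, starved 0.5 h) chose between odorant (100 µL of 50 µL/L on filter paper) and hexane control in a glass Y-tube, charcoal-filtered humidified air 300 mL/min per arm, 25 ± 1 °C, 50% RH. Choice scored if insect passed half an arm and stayed >1 min within 10 min; 45 insects per compound, chi-squared test.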

SfurOBP1 = SfurOBP1 (Sogatella furcifera, UniProt V5T8N5); assay: biochemical; format: binding; settings: for Fluorescence competitive binding assay, fluorescence intensity: OBP1, three replicate columns
How it was run: (§1)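 1-NPN displacement assay with odorant competitor at 2–20 µM; protein and probe both 2.0 µM at pH 7.4. Ki is calculated from IC50 using the protein/1-NPN dissociation constant.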

SfurOBP11 = SfurOBP11 (Sogatella furcifera, UniProt V5T6E3); assay: biochemical; format: binding
How it was run: as §1

SfurOBP2 = SfurOBP2 (Sogatella furcifera, UniProt V5T759); assay: biochemical; format: binding
How it was run: as §1

SfurOBP3 = SfurOBP3 (Sogatella furcifera, UniProt V5T818); assay: biochemical; format: binding; settings: for Fluorescence competitive binding assay, fluorescence intensity: OBP3, three replicate columns
How it was run: as §1

Sequence of SfurOBP11 (V5T6E3 entry or part of it): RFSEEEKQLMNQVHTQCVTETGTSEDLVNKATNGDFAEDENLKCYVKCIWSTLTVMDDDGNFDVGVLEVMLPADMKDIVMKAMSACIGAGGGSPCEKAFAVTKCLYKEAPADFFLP
Sequence of SfurOBP2 (V5T759 entry or part of it): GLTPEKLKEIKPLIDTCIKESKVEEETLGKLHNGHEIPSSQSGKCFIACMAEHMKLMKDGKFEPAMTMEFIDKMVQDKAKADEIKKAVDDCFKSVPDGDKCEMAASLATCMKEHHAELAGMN
Sequence of SfurOBP1 (V5T8N5 entry or part of it): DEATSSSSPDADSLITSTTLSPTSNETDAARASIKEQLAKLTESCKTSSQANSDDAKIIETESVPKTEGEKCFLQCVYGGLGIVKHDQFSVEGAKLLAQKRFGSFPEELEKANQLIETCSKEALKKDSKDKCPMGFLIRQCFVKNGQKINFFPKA
Sequence of SfurOBP3 (V5T818 entry or part of it): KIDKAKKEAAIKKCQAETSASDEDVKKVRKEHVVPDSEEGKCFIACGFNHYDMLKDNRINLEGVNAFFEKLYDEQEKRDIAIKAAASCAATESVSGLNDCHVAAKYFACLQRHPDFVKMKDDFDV

C=C/C(C)=C/C/C=C(\C)CCC=C(C)C [α-farnesene]
behavioral response of S. furcifera (in words) (S. furcifera adults): strongly attracted | number of insects choosing hexane arm (S. furcifera adults; adults): 10 | number of insects choosing volatilies arm (S. furcifera adults; adults): 25 | number of insects failed (no choice) (S. furcifera adults; adults): 5 | Fluorescence competitive binding assay, fluorescence intensity (SfurOBP1; ligand concentration 2 (μM)): 5991 and 6647 and 6019 | Fluorescence competitive binding assay, fluorescence intensity (SfurOBP1; ligand concentration 4 (μM)): 9444 and 9717 and 9590 | Fluorescence competitive binding assay, fluorescence intensity (SfurOBP1; ligand concentration 6 (μM)): 8928 and 9981 and 10192 | Fluorescence competitive binding assay, fluorescence intensity (SfurOBP1; ligand concentration 8 (μM)): 7764 and 12061 and 8808 | Fluorescence competitive binding assay, fluorescence intensity (SfurOBP1; ligand concentration 10 (μM)): 10672 and 12757 and 12848 | Fluorescence competitive binding assay, fluorescence intensity (SfurOBP1; ligand concentration 12 (μM)): 11226 and 16440 and 11668 | Fluorescence competitive binding assay, fluorescence intensity (SfurOBP1; ligand concentration 14 (μM)): 11457 and 12509 and 12654 | Fluorescence competitive binding assay, fluorescence intensity (SfurOBP1; ligand concentration 16 (μM)): 9720 and 12853 and 11395 | Fluorescence competitive binding assay, fluorescence intensity (SfurOBP1; ligand concentration 18 (μM)): 14020 and 17603 and 13863 | Fluorescence competitive binding assay, fluorescence intensity (SfurOBP1; ligand concentration 20 (μM)): 16799 and 14644 and 13556 | IC50 (SfurOBP1; SfurOBP1, protein and 1-NPN both 2.0 µM, competitor 2-20 µM, read-out: IC50): > 20 µM | IC50 (SfurOBP11; SfurOBP11, protein and 1-NPN both 2.0 µM, competitor 2-20 µM, read-out: IC50): > 20 µM | Fluorescence intensity, fluorescence competitive binding assay, OBP11 (SfurOBP11; ligand concentration 4, replicate 1): 32002 | Fluorescence intensity, fluorescence competitive binding assay, OBP11 (SfurOBP11; ligand concentration 6, replicate 1): 31916 | Fluorescence intensity, fluorescence competitive binding assay, OBP11 (SfurOBP11; ligand concentration 8, replicate 1): 31638 | Fluorescence intensity, fluorescence competitive binding assay, OBP11 (SfurOBP11; ligand concentration 8, replicate 2): 32522 | Fluorescence intensity, fluorescence competitive binding assay, OBP11 (SfurOBP11; ligand concentration 8, replicate 3): 31984 | Fluorescence intensity, fluorescence competitive binding assay, OBP11 (SfurOBP11; ligand concentration 10, replicate 1): 34517 | Fluorescence intensity, fluorescence competitive binding assay, OBP11 (SfurOBP11; ligand concentration 10, replicate 2): 33120 | Fluorescence intensity, fluorescence competitive binding assay, OBP11 (SfurOBP11; ligand concentration 10, replicate 3): 33819 | Fluorescence intensity, fluorescence competitive binding assay, OBP11 (SfurOBP11; ligand concentration 12, replicate 3): 31678 | Fluorescence intensity, fluorescence competitive binding assay, OBP11 (SfurOBP11; ligand concentration 14, replicate 1): 31889 | Fluorescence intensity, fluorescence competitive binding assay, OBP11 (SfurOBP11; ligand concentration 14, replicate 2): 31807 | Fluorescence intensity, fluorescence competitive binding assay, OBP11 (SfurOBP11; ligand concentration 14, replicate 3): 32302 | Fluorescence intensity, fluorescence competitive binding assay, OBP11 (SfurOBP11; ligand concentration 18, replicate 1): 36648 | Fluorescence intensity, fluorescence competitive binding assay, OBP11 (SfurOBP11; ligand concentration 18, replicate 2): 40474 | Fluorescence intensity, fluorescence competitive binding assay, OBP11 (SfurOBP11; ligand concentration 18, replicate 3): 36079 | Fluorescence intensity, fluorescence competitive binding assay, OBP11 (SfurOBP11; ligand concentration 20, replicate 1): 36041 | Fluorescence intensity, fluorescence competitive binding assay, OBP11 (SfurOBP11; ligand concentration 20, replicate 2): 35048 | Fluorescence intensity, fluorescence competitive binding assay, OBP11 (SfurOBP11; ligand concentration 20, replicate 3): 35313 | IC50 (SfurOBP2; SfurOBP2, protein and 1-NPN both 2.0 µM, competitor 2-20 µM, read-out: IC50): > 20 µM | Fluorescence competitive binding assay, OBP2 (raw fluorescence reading) (SfurOBP2; ligand concentration 2 (unit not given), replicate column 1 of 3): 15175 | Fluorescence competitive binding assay, OBP2 (raw fluorescence reading) (SfurOBP2; ligand concentration 2 (unit not given), replicate column 2 of 3): 15154 | Fluorescence competitive binding assay, OBP2 (raw fluorescence reading) (SfurOBP2; ligand concentration 2 (unit not given), replicate column 3 of 3): 16258 | Fluorescence competitive binding assay, OBP2 (raw fluorescence reading) (SfurOBP2; ligand concentration 4 (unit not given), replicate column 1 of 3): 15758 | Fluorescence competitive binding assay, OBP2 (raw fluorescence reading) (SfurOBP2; ligand concentration 4 (unit not given), replicate column 2 of 3): 17105 | Fluorescence competitive binding assay, OBP2 (raw fluorescence reading) (SfurOBP2; ligand concentration 4 (unit not given), replicate column 3 of 3): 16490 | Fluorescence competitive binding assay, OBP2 (raw fluorescence reading) (SfurOBP2; ligand concentration 6 (unit not given), replicate column 1 of 3): 15945 | Fluorescence competitive binding assay, OBP2 (raw fluorescence reading) (SfurOBP2; ligand concentration 6 (unit not given), replicate column 2 of 3): 16570 | Fluorescence competitive binding assay, OBP2 (raw fluorescence reading) (SfurOBP2; ligand concentration 6 (unit not given), replicate column 3 of 3): 19054 | Fluorescence competitive binding assay, OBP2 (raw fluorescence reading) (SfurOBP2; ligand concentration 8 (unit not given), replicate column 1 of 3): 15963 | Fluorescence competitive binding assay, OBP2 (raw fluorescence reading) (SfurOBP2; ligand concentration 8 (unit not given), replicate column 2 of 3): 18724 | Fluorescence competitive binding assay, OBP2 (raw fluorescence reading) (SfurOBP2; ligand concentration 8 (unit not given), replicate column 3 of 3): 18059 | Fluorescence competitive binding assay, OBP2 (raw fluorescence reading) (SfurOBP2; ligand concentration 10 (unit not given), replicate column 1 of 3): 16134 | Fluorescence competitive binding assay, OBP2 (raw fluorescence reading) (SfurOBP2; ligand concentration 10 (unit not given), replicate column 2 of 3): 18215 | Fluorescence competitive binding assay, OBP2 (raw fluorescence reading) (SfurOBP2; ligand concentration 10 (unit not given), replicate column 3 of 3): 19226 | Fluorescence competitive binding assay, OBP2 (raw fluorescence reading) (SfurOBP2; ligand concentration 12 (unit not given), replicate column 1 of 3): 15563 | Fluorescence competitive binding assay, OBP2 (raw fluorescence reading) (SfurOBP2; ligand concentration 12 (unit not given), replicate column 2 of 3): 19243 | Fluorescence competitive binding assay, OBP2 (raw fluorescence reading) (SfurOBP2; ligand concentration 12 (unit not given), replicate column 3 of 3): 19003 | Fluorescence competitive binding assay, OBP2 (raw fluorescence reading) (SfurOBP2; ligand concentration 14 (unit not given), replicate column 1 of 3): 19071 | Fluorescence competitive binding assay, OBP2 (raw fluorescence reading) (SfurOBP2; ligand concentration 14 (unit not given), replicate column 2 of 3): 18512 | Fluorescence competitive binding assay, OBP2 (raw fluorescence reading) (SfurOBP2; ligand concentration 14 (unit not given), replicate column 3 of 3): 18689 | Fluorescence competitive binding assay, OBP2 (raw fluorescence reading) (SfurOBP2; ligand concentration 16 (unit not given), replicate column 1 of 3): 17244 | Fluorescence competitive binding assay, OBP2 (raw fluorescence reading) (SfurOBP2; ligand concentration 16 (unit not given), replicate column 2 of 3): 19263 | Fluorescence competitive binding assay, OBP2 (raw fluorescence reading) (SfurOBP2; ligand concentration 16 (unit not given), replicate column 3 of 3): 18663 | Fluorescence competitive binding assay, OBP2 (raw fluorescence reading) (SfurOBP2; ligand concentration 18 (unit not given), replicate column 1 of 3): 23408 | Fluorescence competitive binding assay, OBP2 (raw fluorescence reading) (SfurOBP2; ligand concentration 18 (unit not given), replicate column 2 of 3): 23725 | Fluorescence competitive binding assay, OBP2 (raw fluorescence reading) (SfurOBP2; ligand concentration 18 (unit not given), replicate column 3 of 3): 20804 | Fluorescence competitive binding assay, OBP2 (raw fluorescence reading) (SfurOBP2; ligand concentration 20 (unit not given), replicate column 1 of 3): 16894 | Fluorescence competitive binding assay, OBP2 (raw fluorescence reading) (SfurOBP2; ligand concentration 20 (unit not given), replicate column 2 of 3): 20680 | Fluorescence competitive binding assay, OBP2 (raw fluorescence reading) (SfurOBP2; ligand concentration 20 (unit not given), replicate column 3 of 3): 19308 | Fluorescence competitive binding assay, fluorescence intensity (SfurOBP3; ligand concentration 2): 35042 and 35938 and 36236 | Fluorescence competitive binding assay, fluorescence intensity (SfurOBP3; ligand concentration 4): 33936 and 35041 and 36163 | Fluorescence competitive binding assay, fluorescence intensity (SfurOBP3; ligand concentration 6): 30371 and 31101 and 32222 | Fluorescence competitive binding assay, fluorescence intensity (SfurOBP3; ligand concentration 8): 32781 and 31040 and 32847 | Fluorescence competitive binding assay, fluorescence intensity (SfurOBP3; ligand concentration 10): 31032 and 32369 and 33307 | Fluorescence competitive binding assay, fluorescence intensity (SfurOBP3; ligand concentration 12): 29013 and 34433 and 32292 | Fluorescence competitive binding assay, fluorescence intensity (SfurOBP3; ligand concentration 14): 31092 and 30872 and 34922 | Fluorescence competitive binding assay, fluorescence intensity (SfurOBP3; ligand concentration 16): 33838 and 32037 and 30214 | Fluorescence competitive binding assay, fluorescence intensity (SfurOBP3; ligand concentration 18): 37931 and 38340 and 38776 | Fluorescence competitive binding assay, fluorescence intensity (SfurOBP3; ligand concentration 20): 37363 and 39141 and 38102 | binding affinity to SfurOBP3 (in words) (SfurOBP3; SfurOBP3): high binding affinities | IC50 (SfurOBP3; SfurOBP3, protein and 1-NPN both 2.0 µM, competitor 2-20 µM, read-out: IC50): > 20 µM
